Drawing on ChEMBL document CHEMBL1158994, “Methylpendolmycin, an indolactam from a Nocardiopsis sp” (J Nat Prod, 1991), this text covers Ki and IC50 for 2 compounds.

The assay addresses Protein kinase C (PKC). As to the kind of experiment: Displacement of radiolabeled PDBU from PKC in rat forebrain. In kind it is tissue-based.

SMILES strings stand for the structures. Values after ≈ are worked out from the molar mass of the structure shown.

What is called Ki is a dissociation constant, usually derived from enzyme kinetics or from competition with a known ligand. A low value points to tighter binding. As to `CCCCCCCCCCCCCC(=O)O[C@@H]1[C@@H](C)[C@@]2(O)[C@@H](C=C(CO)C[C@]3(OC)C(=O)C(C)=C[C@@H]23)[C@@H]2C(C)(C)[C@]12OC(C)=O`, the Ki was 500 nM. By IC50 is commonly meant the concentration that inhibits the measured activity by half. Higher therefore signals lower potency. In the case of `C=CC(C)(C)c1ccc2c3c(c[nH]c13)C[C@@H](CO)NC(=O)[C@H]([C@@H](C)CC)N2C` [METHYLPENDOLMYCIN], the IC50 worked out at 0.0135 µg/mL (≈ 0.0352 µM).
